Measurements published in patent US11739074B2, “Ras inhibitors” (Revolution Medicines, Inc., priority 2019, dated 2023).
pEC50, pIC50: −log10 of the molar value. Where two headings read alike, the source gives them in different places.

Experiments:
Format in all cases: cell-based
NCI-H358 (K-Ras G12C) = test: CellTiter-Glo cell viability assay, H358; details: Homo sapiens, NCI-H358, 120 h
In short: (§1)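 Luminescent viability readout on day 5, plates first brought to room temperature for ~30 min; compounds added straight to plated RAS-mutant cells. Values expressed as percent of mean DMSO signal, curves fitted with a four-parameter logistic model.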

AsPC-1 (K-Ras G12D) [1] = test: Potency assay: pERK in AsPC-1 cells; details: Homo sapiens
AsPC-1 (K-Ras G12D) [2] = test: CellTiter-Glo cell viability assay, AsPC-1; details: Homo sapiens, ASPC1, 120 h
In short: as §1

[3] = NCI-H358, K-Ras G12C, 5-day treatment, read-out: H358 Cell Viability IC50
[4] = ASPC1, AsPC-1 cells, K-Ras G12D, read-out: pERK EC50 (AsPC-1 KRAS G12D)
[5] = AsPC-1, K-Ras G12D, 5-day treatment, read-out: AsPC-1 Cell Viability IC50
[6] = read-out: H358 Cell Viability IC50, NCI-H358, K-Ras G12C, 5-day treatment
[7] = ASPC1, read-out: pERK EC50 (AsPC-1 KRAS G12D)
[8] = read-out: AsPC-1 Cell Viability IC50, AsPC-1, K-Ras G12D, 5-day treatment

CCn1c(-c2cccnc2[C@H](C)OC)c2c3cc(ccc31)-c1cc(O)cc(c1)C[C@H](NC(=O)[C@H](C(C)C)N(C)C(=O)[C@@H]1CCN(C(=O)[C@@H]3CN3)[C@@H]1C)C(=O)N1CCC[C@H](N1)C(=O)OCC(C)(C)C2 [Compound 208] was tested, and the pIC50 (NCI-H358 (K-Ras G12C); [3]) was 7.00 to 8.00, the pEC50 (AsPC-1 (K-Ras G12D) [1]; [4]) was greater than 5.30 and the pIC50 (AsPC-1 (K-Ras G12D) [2]; [5]) was 5.00 to 6.00.
Work on CCn1c(-c2cccnc2[C@H](C)OC)c2c3cc(ccc31)-c1cc(O)cc(c1)C[C@H](NC(=O)[C@H](C(C)C)N(C)C(=O)CN(C)C(=O)[C@H]1CN1CC1(C)COC1)C(=O)N1CCC[C@H](N1)C(=O)OCC(C)(C)C2 (stereo partly drawn) [Compound 279] yielded a pIC50 (NCI-H358 (K-Ras G12C); [6]) greater than 8.00, a pEC50 (AsPC-1 (K-Ras G12D) [1]; [7]) greater than 5.30 and a pIC50 (AsPC-1 (K-Ras G12D) [2]; [8]) of 6.00 to 7.00.
In the case of CCn1c(-c2cccnc2[C@H](C)OC)c2c3cc(ccc31)-c1csc(n1)C[C@H](NC(=O)[C@H](C(C)C)N(C)C(=O)N1CCN(C(=O)[C@@H]3CN3)CC1)C(=O)N1CCC[C@H](N1)C(=O)OCC(C)(C)C2 [Compound 168], the pIC50 (NCI-H358 (K-Ras G12C); [3]) was 7.00 to 8.00, the pEC50 (AsPC-1 (K-Ras G12D) [1]; [4]) was greater than 5.30 and the pIC50 (AsPC-1 (K-Ras G12D) [2]; [5]) was 6.00 to 7.00.
CCn1c(-c2cccnc2[C@H](C)OC)c2c3cc(ccc31)-c1cc(O)cc(c1)C[C@H](NC(=O)[C@H](C(C)C)N(C)C(=O)[C@@H]1CCN(C(=O)[C@H]3CN3)C1)C(=O)N1CCC[C@H](N1)C(=O)OCC(C)(C)C2 [Compound 186] gave a pIC50 (NCI-H358 (K-Ras G12C); [3]) greater than 8.00, a pEC50 (AsPC-1 (K-Ras G12D) [1]; [4]) greater than 5.30 and a pIC50 (AsPC-1 (K-Ras G12D) [2]; [5]) of 6.00 to 7.00.
CCn1c(-c2cccnc2[C@H](C)OC)c2c3cc(ccc31)-c1cc(O)cc(c1)C[C@H](NC(=O)[C@H](C(C)C)N(C)C(=O)CN(C)C(=O)[C@@H]1CN1C1COC1)C(=O)N1CCC[C@H](N1)C(=O)OCC(C)(C)C2 (stereo partly drawn) [Compound 276] gave a pIC50 (NCI-H358 (K-Ras G12C); [6]) of 7.00 to 8.00, a pEC50 (AsPC-1 (K-Ras G12D) [1]; [7]) greater than 5.30 and a pIC50 (AsPC-1 (K-Ras G12D) [2]; [8]) of 5.00 to 6.00.
CCn1c(-c2cccnc2[C@H](C)OC)c2c3cc(ccc31)-c1cccc(c1)C[C@H](NC(=O)[C@H](C(C)C)N(C)C(=O)[C@H]1C[C@H](N=C=NCc3ccccc3OC)C1)C(=O)N1CCC[C@H](N1)C(=O)OCC(C)(C)C2 [Compound 77] gave a pIC50 (NCI-H358 (K-Ras G12C); [3]) of 6.00 to 7.00, a pEC50 (AsPC-1 (K-Ras G12D) [1]; [4]) greater than 5.30 and a pIC50 (AsPC-1 (K-Ras G12D) [2]; [5]) of 6.00 to 7.00.
Work on CCn1c(-c2cccnc2[C@H](C)OC)c2c3cc(ccc31)-c1cc(O)cc(c1)C[C@H](NC(=O)[C@H](C1CCCC1)N(C)C(=O)CN(C)C(=O)[C@H]1CN1)C(=O)N1CCC[C@H](N1)C(=O)OCC(C)(C)C2 [Example 95, (2R)—N-(2-(((1S)-1-cyclopentyl-2-(((6^3S,4S)-1^1-ethyl-2^5-hydroxy-1^2-(2-((S)-1-methoxyethyl)pyridin-3-yl)-10,10-dimethyl-5,7-dioxo-6^1,6^2,6^3,6^4,6^5,6^6-hexahydro-1^1H-8-oxa-1(5,3)-indola-6(1,3)-pyridazina-2(1,3)-benzenacycloundecaphane-4-yl)amino)-2-oxoethyl)(methyl)amino)-2-oxoethyl)-N-methylaziridine-2-carboxamide] yielded a pIC50 (NCI-H358 (K-Ras G12C); [6]) greater than 8.00, a pEC50 (AsPC-1 (K-Ras G12D) [1]; [7]) greater than 5.30 and a pIC50 (AsPC-1 (K-Ras G12D) [2]; [8]) of 7.00 to 8.00.
With CCn1c(-c2cccnc2[C@H](C)OC)c2c3cc(ccc31)-c1csc(n1)C[C@H](NC(=O)[C@H](C(C)C)N(C)C(=O)N(C)CCN(C)C(=O)[C@@H]1CN1)C(=O)N1CCC[C@H](N1)C(=O)OCC(C)(C)C2 [Compound 217] the pIC50 (NCI-H358 (K-Ras G12C); [3]) was 7.00 to 8.00, the pEC50 (AsPC-1 (K-Ras G12D) [1]; [4]) was greater than 5.30 and the pIC50 (AsPC-1 (K-Ras G12D) [2]; [5]) was 6.00 to 7.00.
CCn1c(-c2cccnc2[C@H](C)OC)c2c3cc(ccc31)-c1csc(n1)C[C@H](NC(=O)[C@H](C(C)C)N(C)C(=O)N1CCN(C(=O)[C@H]3CN3)[C@H](C)C1)C(=O)N1CCC[C@H](N1)C(=O)OCC(C)(C)C2 [Compound 299] gave a pIC50 (NCI-H358 (K-Ras G12C); [3]) greater than 8.00, a pEC50 (AsPC-1 (K-Ras G12D) [1]; [4]) greater than 5.30 and a pIC50 (AsPC-1 (K-Ras G12D) [2]; [5]) of 6.00 to 7.00.
For CCn1c(-c2cnccc2COC)c2c3cc(ccc31)-c1cc(O)cc(c1)C[C@H](NC(=O)[C@H](C(C)C)N(C)C(=O)CN(C)C(=O)[C@@H]1N[C@@H]1C1CC1)C(=O)N1CCC[C@H](N1)C(=O)OCC(C)(C)C2 [Compound 103], the pIC50 (NCI-H358 (K-Ras G12C); [6]) was 6.00 to 7.00, the pEC50 (AsPC-1 (K-Ras G12D) [1]; [7]) was greater than 5.30 and the pIC50 (AsPC-1 (K-Ras G12D) [2]; [8]) was 6.00 to 7.00.
CCn1c(-c2cccnc2[C@H](C)OC)c2c3cc(ccc31)-c1csc(n1)C[C@H](NC(=O)[C@H](C(C)C)N(C)C(=O)N1CC[C@@H](N(C)C(=O)[C@@H]3CN3)C1)C(=O)N1CCC[C@H](N1)C(=O)OCC(C)(C)C2 [Compound 227] was tested, and the pIC50 (NCI-H358 (K-Ras G12C); [3]) was 7.00 to 8.00, the pEC50 (AsPC-1 (K-Ras G12D) [1]; [4]) was greater than 5.30 and the pIC50 (AsPC-1 (K-Ras G12D) [2]; [5]) was 5.00 to 6.00.
With CCn1c(-c2cccnc2[C@H](C)OC)c2c3cc(ccc31)-c1cc(O)cc(c1)C[C@H](NC(=O)[C@H](C(C)C)N(C)C(=O)CN(C)C(=O)[C@H]1CN1Cc1ccccc1F)C(=O)N1CCC[C@H](N1)C(=O)OCC(C)(C)C2 (stereo partly drawn) [Compound 155] the pIC50 (NCI-H358 (K-Ras G12C); [6]) was greater than 8.00, the pEC50 (AsPC-1 (K-Ras G12D) [1]; [7]) was greater than 5.30 and the pIC50 (AsPC-1 (K-Ras G12D) [2]; [8]) was 6.00 to 7.00.
With CCn1c(-c2cccnc2[C@H](C)OC)c2c3cc(ccc31)-c1csc(n1)C[C@H](NC(=O)[C@H](C1CCCC1)N(C)C(=O)CN(C)C(=O)[C@H]1CN1)C(=O)N1CCC[C@H](N1)C(=O)OCC(C)(C)C2 [Compound 132] the pIC50 (NCI-H358 (K-Ras G12C); [3]) was 7.00 to 8.00, the pEC50 (AsPC-1 (K-Ras G12D) [1]; [4]) was greater than 5.30 and the pIC50 (AsPC-1 (K-Ras G12D) [2]; [5]) was 5.00 to 6.00.
Compound CCn1c(-c2cccnc2[C@H](C)OC)c2c3cc(ccc31)-c1cc(O)cc(c1)C[C@H](NC(=O)[C@H](C(C)C)N(C)C(=O)CN(C)C(=O)[C@@H]1CN1CCOC)C(=O)N1CCC[C@H](N1)C(=O)OCC(C)(C)C2 (stereo partly drawn) [Compound 160] has a pIC50 (NCI-H358 (K-Ras G12C); [6]) greater than 8.00, a pEC50 (AsPC-1 (K-Ras G12D) [1]; [7]) greater than 5.30 and a pIC50 (AsPC-1 (K-Ras G12D) [2]; [8]) of 6.00 to 7.00.
CCn1c(-c2cccnc2[C@H](C)OC)c2c3cc(ccc31)-c1cc(O)cc(c1)C[C@H](NC(=O)[C@H](C(C)C)N(C)C(=O)[C@@H]1CO[C@H](C)CN1C(=O)[C@H]1CN1)C(=O)N1CCC[C@H](N1)C(=O)OCC(C)(C)C2 [Compound 248] was tested, and the pIC50 (NCI-H358 (K-Ras G12C); [3]) was 7.00 to 8.00, the pEC50 (AsPC-1 (K-Ras G12D) [1]; [4]) was greater than 5.30 and the pIC50 (AsPC-1 (K-Ras G12D) [2]; [5]) was 6.00 to 7.00.
CCn1c(-c2cccnc2[C@H](C)OC)c2c3cc(ccc31)-c1cc(O)cc(c1)C[C@H](NC(=O)[C@H](C(C)C)N(C)C(=O)CN(C)C(=O)[C@H]1CN1Cc1ccccc1CO)C(=O)N1CCC[C@H](N1)C(=O)OCC(C)(C)C2 (stereo partly drawn) [Compound 156] was tested, and the pIC50 (NCI-H358 (K-Ras G12C); [6]) was greater than 8.00, the pEC50 (AsPC-1 (K-Ras G12D) [1]; [7]) was greater than 5.30 and the pIC50 (AsPC-1 (K-Ras G12D) [2]; [8]) was 6.00 to 7.00.
For CCn1c(-c2cccnc2[C@H](C)OC)c2c3cc(ccc31)-c1cc(O)cc(c1)C[C@H](NC(=O)[C@H](C(C)C)N(C)C(=O)CN(C)C(=O)[C@]1(C)CN1)C(=O)N1CCC[C@H](N1)C(=O)OCC(C)(C)C2 [Compound 257], the pIC50 (NCI-H358 (K-Ras G12C); [6]) was 7.00 to 8.00, the pEC50 (AsPC-1 (K-Ras G12D) [1]; [7]) was greater than 5.30 and the pIC50 (AsPC-1 (K-Ras G12D) [2]; [8]) was 6.00 to 7.00.
In the case of CCn1c(-c2cccnc2[C@H](C)OC)c2c3cc(ccc31)-c1cc(O)cc(c1)C[C@H](NC(=O)[C@H](C(C)C)N(C)C(=O)CN(C)C(=O)[C@H]1N[C@H]1C(F)(F)F)C(=O)N1CCC[C@H](N1)C(=O)OCC(C)(C)C2 [Compound 259], the pIC50 (NCI-H358 (K-Ras G12C); [6]) was 7.00 to 8.00, the pEC50 (AsPC-1 (K-Ras G12D) [1]; [7]) was greater than 5.30 and the pIC50 (AsPC-1 (K-Ras G12D) [2]; [8]) was 6.00 to 7.00.
In the case of CCn1c(-c2cccnc2[C@H](C)OC)c2c3cc(ccc31)-c1cc(O)cc(c1)C[C@H](NC(=O)[C@H](C(C)C)N(C)C(=O)CN(C)C(=O)[C@H]1C[C@@H]3N[C@@H]3C1)C(=O)N1CCC[C@H](N1)C(=O)OCC(C)(C)C2 [Compound 285], the pIC50 (NCI-H358 (K-Ras G12C); [3]) was 6.00 to 7.00, the pEC50 (AsPC-1 (K-Ras G12D) [1]; [4]) was greater than 5.30 and the pIC50 (AsPC-1 (K-Ras G12D) [2]; [5]) was 7.00 to 8.00.
With CCn1c(-c2cccnc2[C@H](C)OC)c2c3cc(ccc31)-c1csc(n1)C[C@H](NC(=O)[C@H](C1CCCC1)N(C)C(=O)CN(C)C(=O)[C@@H]1N[C@@H]1C1CC1)C(=O)N1CCC[C@H](N1)C(=O)OCC(C)(C)C2 [Compound 210] the pIC50 (NCI-H358 (K-Ras G12C); [3]) was 6.00 to 7.00, the pEC50 (AsPC-1 (K-Ras G12D) [1]; [4]) was greater than 5.30 and the pIC50 (AsPC-1 (K-Ras G12D) [2]; [5]) was 6.00 to 7.00.
With CCn1c(-c2cccnc2[C@H](C)OC)c2c3cc(ccc31)-c1csc(n1)C[C@H](NC(=O)[C@H](C(C)C)N(C)C(=O)N1CCN(C(=O)[C@@H]3CN3)[C@@H](C)C1)C(=O)N1CCC[C@H](N1)C(=O)OCC(C)(C)C2 [Compound 298] the pIC50 (NCI-H358 (K-Ras G12C); [3]) was 7.00 to 8.00, the pEC50 (AsPC-1 (K-Ras G12D) [1]; [4]) was greater than 5.30 and the pIC50 (AsPC-1 (K-Ras G12D) [2]; [5]) was 6.00 to 7.00.
